Data taken from PubChem BioAssay AID310 (DTP/NCI, 2004).
“And” between values parts separate entries of the source, which are not always exact repeats. Equal entries are not always repeated. Records with an inconclusive call do not appear.

System: C3AKF1 mice, osteogenic sarcoma HE10734 s.c., tumor weight T/C
Assay: NCI In Vivo Anticancer Drug Screen. Data for tumor model Osteogenic Sarcoma HE 10734 (subcutaneous) in C3AKF1 (CHKRF1) mice
Conditions: endpoint: mean tumor weight, schedule: Q01DX010 (ip), higher = larger tumour
Procedure: The antitumor activity of compounds was measured in mice bearing transplantable tumors. Survival or tumor size were measured and the results are expressed as the measurement made in the treated group (T) divided by the measurement made in the vehicle treated control group (C). The tumor model used in this assay is Osteogenic Sarcoma HE 10734 (subcutaneous) in C3AKF1 (CHKRF1) mice

[1] = dose: 30.0 mg/kg/injection, vehicle: saline
[2] = dose: 35.0 mg/kg/injection, vehicle: carboxymethylcellulose (CMC)
[3] = dose: 25.0 mg/kg/injection, vehicle: saline
[4] = dose: 50.0 mg/kg/injection, vehicle: saline
[5] = dose: 100.0 mg/kg/injection, vehicle: saline
[6] = dose: 30.0 mg/kg/injection, vehicle: carboxymethylcellulose (CMC)
[7] = dose: 125.0 mg/kg/injection, vehicle: carboxymethylcellulose (CMC)
[8] = dose: 200.0 mg/kg/injection, vehicle: saline
[9] = dose: 35.0 mg/kg/injection, vehicle: saline
[10] = dose: 125.0 mg/kg/injection, vehicle: saline
[11] = dose: 250.0 mg/kg/injection, vehicle: saline
[12] = dose: 500.0 mg/kg/injection, vehicle: saline

## CN(C)[C@@H]1C(=O)C(C(=O)NCN(CCCl)CCCl)=C(O)[C@@]2(O)C(=O)C3=C(O)c4c(O)cccc4[C@@](C)(O)[C@H]3C[C@@H]12
dose: 8.9 mg/kg/injection, vehicle: saline
  T/C: 105 % of control
dose: 13.0 mg/kg/injection, vehicle: saline
  T/C: 84 % of control
dose: 20.0 mg/kg/injection, vehicle: saline
  T/C: 94 % of control
[1]
  T/C: 52 % of control and 69 % of control
dose: 44.0 mg/kg/injection, vehicle: saline
  T/C: 53 % of control

## CCCCCCCCCCCCO[P+](=O)OCCCCCCCCCCCC
dose: 65.0 mg/kg/injection, vehicle: carboxymethylcellulose (CMC)
  T/C: 81 % of control
dose: 95.0 mg/kg/injection, vehicle: carboxymethylcellulose (CMC)
  T/C: 55 % of control
dose: 145.0 mg/kg/injection, vehicle: carboxymethylcellulose (CMC)
  T/C: 51 % of control
dose: 220.0 mg/kg/injection, vehicle: carboxymethylcellulose (CMC)
  T/C: 48 % of control
dose: 222.0 mg/kg/injection, vehicle: carboxymethylcellulose (CMC)
  T/C: 36 % of control

## O=C(O)C(=O)c1ccc(-c2ccccc2)cc1
[2]
  T/C: 69 % of control

## CSc1ncc(Br)c(Sc2nc(N)nc3nc[nH]c23)n1
dose: 1.5 mg/kg/injection, vehicle: carboxymethylcellulose (CMC)
  T/C: 103 % of control
dose: 3.0 mg/kg/injection, vehicle: carboxymethylcellulose (CMC)
  T/C: 87 % of control
dose: 6.0 mg/kg/injection, vehicle: carboxymethylcellulose (CMC)
  T/C: 55 % of control
dose: 12.0 mg/kg/injection, vehicle: carboxymethylcellulose (CMC)
  T/C: 77 % of control

## Cc1ccc(N2CCN(CCCN3CCN(c4ccc(Cl)cc4)CC3)CC2)cc1
dose: 6.25 mg/kg/injection, vehicle: carboxymethylcellulose (CMC)
  T/C: 97 % of control
dose: 12.5 mg/kg/injection, vehicle: carboxymethylcellulose (CMC)
  T/C: 77 % of control
dose: 25.0 mg/kg/injection, vehicle: carboxymethylcellulose (CMC)
  T/C: 102 % of control

## Nc1ncnc2c1ncn2C1CCCO1 (configuration not stated)
dose: 75.0 mg/kg/injection, vehicle: saline
  T/C: 86 % of control
dose: 150.0 mg/kg/injection, vehicle: saline
  T/C: 54 % of control

## O=P1(N(CCCl)CCCl)NCCCO1 (configuration not stated)
dose: 3.6 mg/kg/injection, vehicle: saline
  T/C: 172 % of control
dose: 5.5 mg/kg/injection, vehicle: saline
  T/C: 151 % of control
dose: 8.3 mg/kg/injection, vehicle: saline
  T/C: 93 % of control
[3]
  T/C: 22 % of control
[4]
  T/C: 5 % of control
[5]
  T/C: 2 % of control

## CCc1c(CC(=O)O)c2cc(C)ccc2n1Cc1ccc(Cl)cc1
[4]
  T/C: 79 % of control

## c1cc2n(n1)CCN2
[1]
  T/C: 100 % of control
dose: 60.0 mg/kg/injection, vehicle: saline
  T/C: 68 % of control
dose: 120.0 mg/kg/injection, vehicle: saline
  T/C: 40 % of control

## CCCCCCC(=O)NC1=C(N2CC2)C(=O)C(NC(=O)CCCCCC)=C(N2CC2)C1=O
dose: 15.0 mg/kg/injection, vehicle: carboxymethylcellulose (CMC)
  T/C: 104 % of control
[6]
  T/C: 83 % of control
dose: 60.0 mg/kg/injection, vehicle: carboxymethylcellulose (CMC)
  T/C: 50 % of control
dose: 120.0 mg/kg/injection, vehicle: carboxymethylcellulose (CMC)
  T/C: 33 % of control

## CC(/C=N/N=C(N)N)=N/N=C(N)N
dose: 12.5 mg/kg/injection, vehicle: saline
  T/C: 85 % of control
[3]
  T/C: 63 % of control

## N#CCSc1nc(N)nc2nc[nH]c12
dose: 2.0 mg/kg/injection, vehicle: carboxymethylcellulose (CMC)
  T/C: 90 % of control
dose: 4.0 mg/kg/injection, vehicle: carboxymethylcellulose (CMC)
  T/C: 107 % of control
dose: 8.0 mg/kg/injection, vehicle: carboxymethylcellulose (CMC)
  T/C: 86 % of control
dose: 16.0 mg/kg/injection, vehicle: carboxymethylcellulose (CMC)
  T/C: 91 % of control
dose: 24.0 mg/kg/injection, vehicle: carboxymethylcellulose (CMC)
  T/C: 113 % of control
[2]
  T/C: 93 % of control
dose: 55.0 mg/kg/injection, vehicle: carboxymethylcellulose (CMC)
  T/C: 90 % of control and 100 % of control
dose: 85.0 mg/kg/injection, vehicle: carboxymethylcellulose (CMC)
  T/C: 44 % of control
[7]
  T/C: 22 % of control

## CCCCSc1nc(N)nc2c1ncn2CC(C)CC (configuration not stated)
[5]
  T/C: 109 % of control
[8]
  T/C: 57 % of control

## CCCCCCCCCCCCCS
[3]
  T/C: 76 % of control
[4]
  T/C: 87 % of control
[5]
  T/C: 82 % of control
[8]
  T/C: 89 % of control

## CC1(C)N=C(N)N=C(N)N1c1cccc(Br)c1
dose: 4.4 mg/kg/injection, vehicle: carboxymethylcellulose (CMC)
  T/C: 89 % of control
dose: 6.6 mg/kg/injection, vehicle: carboxymethylcellulose (CMC)
  T/C: 102 % of control
dose: 10.0 mg/kg/injection, vehicle: carboxymethylcellulose (CMC)
  T/C: 50 % of control and 51 % of control

## CCCCn1cnc2c(SC)nc(N)nc21
[6]
  T/C: 69 % of control
dose: 115.0 mg/kg/injection, vehicle: carboxymethylcellulose (CMC)
  T/C: 71 % of control

## Cn1cnc([N+](=O)[O-])c1Sc1nc(N)nc2c1ncn2C1OC(CO)C(O)C1O (configuration not stated)
dose: 7.5 mg/kg/injection, vehicle: carboxymethylcellulose (CMC)
  T/C: 96 % of control

## O=C(O)C1(NO)CCCC1
dose: 15.0 mg/kg/injection, vehicle: saline
  T/C: 88 % of control
dose: 23.0 mg/kg/injection, vehicle: saline
  T/C: 112 % of control
[9]
  T/C: 71 % of control
dose: 112.0 mg/kg/injection, vehicle: saline
  T/C: 29 % of control

## c1ccc(CSc2ncnc3nc[nH]c23)nc1
[4]
  T/C: 76 % of control and 81 % of control
[5]
  T/C: 29 % of control and 39 % of control

## COc1ccc(Nc2ccnc3cc(Cl)ccc23)cc1CN(CCCl)CCCl
dose: 0.75 mg/kg/injection, vehicle: saline
  T/C: 73 % of control
dose: 1.5 mg/kg/injection, vehicle: saline
  T/C: 57 % of control
dose: 3.0 mg/kg/injection, vehicle: saline
  T/C: 69 % of control

## S=c1c2[nH]cnc2ncn1CCSC1=NC=NC2=NC=NC21 (configuration not stated)
[4]
  T/C: 81 % of control
[8]
  T/C: 35 % of control
dose: 400.0 mg/kg/injection, vehicle: saline
  T/C: 29 % of control

## CC(CCc1cccc2ccccc12)(C(=O)O)C(=O)O
[9]
  T/C: 68 % of control
[4]
  T/C: 157 % of control

## CCn1cnc2c(SC)nc(N)nc21
dose: 12.0 mg/kg/injection, vehicle: saline
  T/C: 76 % of control
[3]
  T/C: 93 % of control
[4]
  T/C: 95 % of control
[5]
  T/C: 108 % of control
dose: 340.0 mg/kg/injection, vehicle: saline
  T/C: 57 % of control

## CS(=O)(=O)OCC(O)C(O)COS(C)(=O)=O (configuration not stated)
[10]
  T/C: 121 % of control
[11]
  T/C: 111 % of control
[12]
  T/C: 81 % of control
dose: 1000.0 mg/kg/injection, vehicle: saline
  T/C: 101 % of control

## Nc1ccc2ccccc2c1N=Nc1ccccc1
dose: 62.5 mg/kg/injection, vehicle: carboxymethylcellulose (CMC)
  T/C: 101 % of control
[7]
  T/C: 100 % of control
dose: 250.0 mg/kg/injection, vehicle: carboxymethylcellulose (CMC)
  T/C: 65 % of control
dose: 500.0 mg/kg/injection, vehicle: carboxymethylcellulose (CMC)
  T/C: 41 % of control

## O=C(NO)c1ccncc1
[10]
  T/C: 113 % of control
[11]
  T/C: 123 % of control
[12]
  T/C: 102 % of control
